Source: publication PMC11765572 (International Journal of Molecular Sciences, 2025)

Test system: SARS-CoV-2 (BetaCov/Belgium/GHB-03021/2020 B.1 lineage A)

| Structure (SMILES) | SI (Selection Index) = CC50/EC50 |
| --- | --- |
| CNC(=O)c1cc(Br)cc([N+](=O)[O-])c1N[C@@H]1CCCC[C@@H]1NC(=O)c1cccnc1 [Compound A5, N-((1S,2R)-2-((4-bromo-2-(methylcarbamoyl)-6-nitrophenyl)amino)cyclohexyl)nicotinamide] | >49.7 |
| CNC(=O)c1cc(Br)cc([N+](=O)[O-])c1N[C@@H]1CCCC[C@@H]1NC(=O)c1cncc(O)c1 [Compound A6, N-((1S,2R)-2-((4-bromo-2-(methylcarbamoyl)-6-nitrophenyl)amino)cyclohexyl)-5-hydroxynicotinamide] | >16.5 |
